According to ChEMBL document CHEMBL1144362, “Synthesis and biological evaluation of novel 1,4-naphthoquinone derivatives as antibacterial and antiviral agents” (2005):
In brackets after ≈: the same amount, converted by molar mass.

What was measured:
Pseudomonas aeruginosa = test: Minimum inhibitory concentration gainst Pseudomonas aeruginosa by broth microdilution technique; type: functional
Klebsiella pneumoniae = test: Minimum inhibitory concentration gainst Klebsiella pneumoniae by broth microdilution technique; type: functional
Escherichia coli = test: Minimum inhibitory concentration gainst Escherichia coli by broth microdilution technique; type: functional
Staphylococcus aureus = test: Minimum inhibitory concentration gainst Staphylococcus aureus by broth microdilution technique; type: functional
Enterococcus faecalis = test: Minimum inhibitory concentration gainst Streptococcus faecalis by broth microdilution technique; type: functional
[1] = Antiviral activity against poliovirus type 2 infected HeLa cells; control=55; type: functional, Poliovirus type2
[2] = Antiviral activity against poliovirus type 2 infected HeLa cells; type: functional, Poliovirus type2

Compound	MIC (Pseudomonas aeruginosa) [µg/mL]	MIC (Klebsiella pneumoniae) [µg/mL]	MIC (Escherichia coli) [µg/mL]	MIC (Staphylococcus aureus) [µg/mL]	MIC (Enterococcus faecalis) [µg/mL]	DPM [1]	DPM [2]
O=C(O)CSC1=CC(=O)c2c(O)ccc(O)c2C1=O	> 50	> 50	> 50	> 50	> 50	–	–
CC(SC1=CC(=O)c2ccccc2C1=O)C(=O)Nc1ccc([N+](=O)[O-])cc1 (stereo not given)	> 50	> 50	50 (≈ 131 µM)	25 (≈ 65.4 µM)	50 (≈ 131 µM)	–	–
COc1ccc(NC(=O)C(C)SC2=CC(=O)c3ccccc3C2=O)cc1 (stereo not given)	> 50	> 50	50 (≈ 136 µM)	25 (≈ 68 µM)	> 50	–	–
CC(SC1=C(O)C(=O)c2ccccc2C1=O)C(=O)O (stereo not given)	> 50	50 (≈ 180 µM)	50 (≈ 180 µM)	50 (≈ 180 µM)	50 (≈ 180 µM)	–	–
GENTAMICIN	0.78	0.39	–	0.78	–	–	–
Cc1cccc(NC(=O)C(C)SC2=CC(=O)c3ccccc3C2=O)c1 (stereo not given)	> 50	> 50	> 50	> 50	> 50	–	–
Cc1ccccc1NC(=O)C(C)SC1=CC(=O)c2ccccc2C1=O (stereo not given)	> 50	> 50	> 50	> 50	> 50	–	–
O=C1C2=C(SCCS2)C(=O)c2ccccc21	50 (≈ 201 µM)	> 50	> 50	> 50	> 50	–	–
Cc1ccc(NC(=O)C(C)SC2=CC(=O)c3ccccc3C2=O)cc1 (stereo not given)	> 50	> 50	> 50	> 50	> 50	–	–
CC(SC1=CC(=O)c2ccccc2C1=O)C(=O)Nc1ccccc1 (stereo not given)	> 50	> 50	6.25 (≈ 18.5 µM)	25 (≈ 74.1 µM)	12.5 (≈ 37 µM)	–	–
Oc1ccc(O)c2c1SCCS2	> 50	> 50	> 50	> 50	> 50	–	–
O=C1C=CC(=O)c2c(Cl)ccc(O)c21	–	–	–	–	–	375	–
O=C1C=CC(=O)c2c(O)c3c(c(O)c21)SCCS3	> 50	> 50	> 50	> 50	> 50	–	–
O=C(O)CSC1=CC(=O)c2ccccc2C1=O	–	–	–	–	–	–	675
O=C(CSC1=CC(=O)c2ccccc2C1=O)Nc1ccccc1	> 50	50 (≈ 155 µM)	50 (≈ 155 µM)	12.5 (≈ 38.7 µM)	50 (≈ 155 µM)	–	–
CC(SC1=CC(=O)c2ccccc2C1=O)C(=O)O (stereo not given)	> 50	50 (≈ 191 µM)	50 (≈ 191 µM)	25 (≈ 95.3 µM)	50 (≈ 191 µM)	–	–
CC(SC1=CC(=O)c2ccccc2C1=O)C(=O)Nc1cccc2ccccc12 (stereo not given)	50 (≈ 129 µM)	> 50	> 50	> 50	> 50	–	–
O=C(CSC1=CC(=O)c2ccccc2C1=O)Nc1ccc([N+](=O)[O-])cc1	> 50	> 50	6.25 (≈ 17 µM)	25 (≈ 67.9 µM)	12.5 (≈ 33.9 µM)	–	–
COc1ccccc1NC(=O)CSC1=CC(=O)c2ccccc2C1=O	> 50	25 (≈ 70.7 µM)	6.25 (≈ 17.7 µM)	> 50	> 12.5	–	–
CC1=C(SC(C)C(=O)O)C(=O)c2ccccc2C1=O (stereo not given)	> 50	> 50	50 (≈ 181 µM)	25 (≈ 90.5 µM)	50 (≈ 181 µM)	–	–
COc1ccccc1NC(=O)C(C)SC1=CC(=O)c2ccccc2C1=O (stereo not given)	> 50	12.5 (≈ 34 µM)	> 50	> 50	> 50	–	–
CC(SC1=CC(=O)c2c(O)ccc(O)c2C1=O)C(=O)O (stereo not given)	> 50	50 (≈ 170 µM)	50 (≈ 170 µM)	> 50	25 (≈ 85 µM)	–	–
Cc1ccccc1NC(=O)CSC1=CC(=O)c2ccccc2C1=O	> 50	> 50	50 (≈ 148 µM)	12.5 (≈ 37 µM)	50 (≈ 148 µM)	–	–
COc1ccc(NC(=O)CSC2=CC(=O)c3ccccc3C2=O)cc1	50 (≈ 141 µM)	6.25 (≈ 17.7 µM)	12.5 (≈ 35.4 µM)	25 (≈ 70.7 µM)	6.25 (≈ 17.7 µM)	–	–
O=C(CSC1=CC(=O)c2ccccc2C1=O)Nc1cccc2ccccc12	> 50	25 (≈ 66.9 µM)	12.5 (≈ 33.5 µM)	> 50	12.5 (≈ 33.5 µM)	–	–
O=C1CSc2c3c(c4ccccc4c2O1)OC(=O)CS3	> 50	25 (≈ 82.1 µM)	> 50	> 50	> 50	–	–
